# Results: publication PMC5962642, “Dynamic imaging of adaptive stress response pathway activation for prediction of drug induced liver injury” (Archives of Toxicology, 2018)
# Entries after “also recorded” stand apart in the source; their conditions may differ.
# Legend:
# [1] = ref livertox.nih.gov database; cited from earlier work
# [2] = ref Chen et al. [2016], cited from earlier work; for DILI con. (DILI-concern labeling): FDA DILI labeling; for Hepa. (hepatotoxicity class): FDA labeling in eight classes of hepatotoxicity
# [3] = C-max obtained from FDA or literature; ref per compound (FDA, Dailymed, Xu, O’Brien, Khetani, Regenthal, Gustafsson, Dawson, Ogutu, Patel, Schmidt, Ravic, Keisu, Hu, Wagner); cited from earlier work
# [4] = test system: Srxn1-GFP (oxidative stress); assay: HepG2 Srxn1-GFP BAC reporter, live cell confocal imaging (oxidative stress); type: cell-based, Human; details: for Srxn1-GFP reporter response: HepG2 BAC-GFP, 24 h live imaging, 1-100 C-max; for activation of Srxn1-GFP and/or CHOP-GFP (cluster 3): cluster description, reporter not resolved per drug (Srxn1-GFP and/or CHOP-GFP)
# Description: (§1) Human hepatoma HepG2 cells were acquired from ATCC (clone HB8065). HepG2 Srxn1, DDIT3 (CHOP), CDKN1A (p21) and ICAM1 BAC GFP reporter cell lines were previously established and characterized (Wink et al. [2017]). HepG2 BAC GFP reporters were maintained and exposed to drugs in DMEM high glucose supplemented with 10% (v/v) FBS, 25 U/mL penicillin and 25 µg/mL streptomycin. The cell lines were used between passage 5 and 25. For live cell imaging, the cells were seeded in Greiner black µ-clear 384 wells plates, at 8000 cells per well.
# Accumulation of GFP levels, propodium iodide (PI) and Hoechst staining was monitored using a Nikon TiE2000 confocal laser microscope (lasers 540, 488 and 408 nm), equipped with an automated stage and perfect focus system at 37 °C with humidified atmosphere and 5% CO2/air mixture. All imaging was similar as previously described^5. Each 384-well plate contained one reporter cell line, which was exposed to all the compounds used in the screen at one certain concentration (1, 5, 10, 50 or 100 Cmax); for each concentration at least two replicates were imaged per reporter cell line. For the ICAM1-GFP reporter experiments, cells were first exposed for 8 h to compound only; next, TNFα was added to all wells, up to a final concentration of 10 ng/mL. Directly after TNFα treatment the live cell imaging was started.
# (§2) Quantitative image analysis was performed with CellProfiler version 2.1.1 (Kamentsky et al. [2011]) with an in house developed CellProfiler module implementing the watershed masked algorithm for segmentation (Yan and Verbeek [2012]; Wink et al. [2017]). Image analysis results were stored as HDF5 files. Data analysis, quality control and graphics were performed using the in house developed R package h5CellProfiler (manuscript in preparation). For each reporter hourly intensity levels of the GFP signal, the nuclear Hoechst33342 intensity levels and at 24 h the PI staining were measured at the single cell level. In addition, cell numbers, nuclei size and cell motility were measured.
# (§3) GFP intensity cell population means were calculated. In addition, for each plate the cell population mean GFP intensity of the DMSO treated cells was calculated to determine background control values. Per plate, the single cells that had values above the 2X mean, 3X mean were counted resulting in GFP positive fraction measures. For ICAM1, the background control values consisted of DMSO conditions treated with TNFα, and the single cells with values above, as well as below background values were counted. Due to the non-symmetric distribution of ICAM1 cell population GFP intensities, the interquartile range (IQR) was used to count the number of cells 1.5, 2 and 3 times above and below the TNFα IQR control values (Supplemental Fig. 1).
# The maximum values over time of the scaled intensity levels and positive GFP fractions were selected for the concentration response curves. These values were fit to a four parameter log-logistic model using the drc package (Ritz et al. [2015]). BMC values were calculated as the concentration at which + 0.25 (and − 0.25 for ICAM1) absolute increase from the initial response values occurred (Fig. 5a).
# [5] = test system: ICAM1-GFP (NF-κB-mediated inflammatory signaling); assay: HepG2 ICAM1-GFP BAC reporter, TNFα-induced, live cell confocal imaging; type: cell-based, Human; details: HepG2 BAC-GFP, 8 h compound then TNFα 10 ng/mL, 24 h live imaging, 1-100 C-max
# Description: Human hepatoma HepG2 cells were acquired from ATCC (clone HB8065). HepG2 Srxn1, DDIT3 (CHOP), CDKN1A (p21) and ICAM1 BAC GFP reporter cell lines were previously established and characterized (Wink et al. [2017]). […] The cell lines were used between passage 5 and 25. For live cell imaging, the cells were seeded in Greiner black μ-clear 384 wells plates, at 8000 cells per well. […] All imaging was similar as previously described^5. […] Directly after TNFα treatment the live cell imaging was started. Quantitative image analysis was performed with CellProfiler version 2.1.1 ([…] et al. [2011]) with an in house developed CellProfiler module implementing the watershed masked algorithm for segmentation (Yan and Verbeek [2012]; Wink et al. [2017]). Image analysis results were stored as HDF5 files. Data analysis, quality control and graphics were performed using the in house developed R package h5CellProfiler (manuscript in preparation). For each reporter hourly intensity levels of the GFP signal, the nuclear Hoechst33342 intensity levels and at 24 h the PI staining were measured at the single cell level. In addition, cell numbers, nuclei size and cell motility were measured. GFP intensity cell population means were calculated. In addition, for each plate the cell population mean GFP intensity of the DMSO treated cells was calculated to determine background control values. Per plate, the single cells that had values above the 2X mean, 3X mean were counted resulting in GFP positive fraction measures. For ICAM1, the background control values consisted of DMSO conditions treated with TNFα, and the single cells with values above, as well as below background values were counted. […] Linear regression was applied with respect to time to quantify treatment effects on a plate-to-plate basis to quantify cell speed, nuclear size, Hoechst nuclear intensity and cell numbers. […] The maximum values over time of the scaled intensity levels and positive GFP fractions were selected for the concentration response curves. These values were fit to a four parameter log-logistic model using the drc package (Ritz et al. [2015]). BMC values were calculated as the concentration at which + 0.25 (and - 0.25 for ICAM1) absolute increase from the initial response values occurred (Fig. 5a).
# [6] = two classes made from the FDA DILI-concern labeling
# [7] = test system: CHOP-GFP (ER stress/UPR response); assay: HepG2 CHOP-GFP BAC reporter, live cell confocal imaging (ER stress/UPR); type: cell-based, Human; details: for CHOP-GFP reporter response: HepG2 BAC-GFP, 24 h live imaging, 1-100 C-max
# [8] = test system: p21-GFP (p53-mediated DNA damage-related response); assay: HepG2 p21-GFP BAC reporter, live cell confocal imaging (DNA damage); type: cell-based, Human; details: 24 h live imaging, 1-100 C-max
# Description: as §1
# Accumulation of GFP levels, propodium iodide (PI) and Hoechst staining was monitored using a Nikon TiE2000 confocal laser microscope (lasers 540, 488 and 408 nm), equipped with an automated stage and perfect focus system at 37 °C with humidified atmosphere and 5% CO2/air mixture. All imaging was similar as previously described^5. […]
# as §2, with “Image analysis results were stored as HDF5 files. Data analysis, quality control and graphics were performed using the in house developed R package h5CellProfiler (manuscript in preparation).” left out
# as §3, with “Due to the non-symmetric distribution of ICAM1 cell population GFP intensities, the interquartile range (IQR) was used to count the number of cells 1.5, 2 and 3 times above and below the TNFα IQR control values (Supplemental Fig. 1).” left out
# [9] = order of responses in 24 h, 100× C-max printed for nimesulide, rifampicin, oxytetracycline
SMILES,Metab (metabolic potential) [1],DILI con. (DILI-concern labeling) [2],Hepa. (hepatotoxicity class) [2],Cmax [3] [µM],Srxn1-GFP reporter response [4],modulation of TNFα-induced ICAM1-GFP response [5],Srxn1-GFP response at the intensity feature level (cell population) ([4]; GFP intensity over the single cell population),Severity class [6],activation of Srxn1-GFP and/or CHOP-GFP (cluster 3) [4],CHOP-GFP reporter response [7],p21-GFP reporter response [8],"Srxn1-GFP response, time dynamics relative to CHOP-GFP [4, 9]","CHOP-GFP response, time dynamics relative to Srxn1-GFP [7, 9]"
CC1=C(CC(=O)O)c2cc(F)ccc2/C1=C\c1ccc([S+](C)[O-])cc1 (centres unmarked) [Sulindac],YES,Most-DC,8,32,activation,,,,,,,,
"Cn1cnc([N+](=O)[O-])c1Sc1ncnc2nc[nH]c12 [Azathioprme, azathioprine]",YES,Most-DC,5,0.34,mild Srxn1-GFP and ICAM1-GFP activation,enhancing; also recorded: mild Srxn1-GFP and ICAM1-GFP activation,,,,,,,
CN(C)CCCN1c2ccccc2Sc2ccc(Cl)cc21 [Chlorpromazine],YES,Less-DC,2,0.94,,,would not have been defined as positive,,,,,,
CC(=O)Nc1ccc(O)cc1 [Acetaminophen],YES,,,,activation,,,,,,,,
O=C(O)Cc1ccccc1Nc1c(Cl)cccc1Cl [Diclofenac],,,,10.1,,inhibiting; also recorded: mild ICAM1-GFP suppression,,Sev.,activation of Srxn1-GFP and/or CHOP-GFP,,,,
C/C=C(/C)C(=O)O[C@H]1C(C)=C2[C@H]([C@@H]1OC(=O)CCCCCCC)[C@@](C)(OC(C)=O)C[C@H](OC(=O)CCC)[C@@]1(O)[C@H]2OC(=O)[C@@]1(C)O [Thapsigargin],,,,,,,,,,strong inducers,,,
O=C1CN(/N=C/c2ccc([N+](=O)[O-])o2)C(=O)N1 [Nitrofurantoin],YES,Most-DC,8,6,,strong ICAM1-GFP suppression,,,,CHOP-GFP activation,,,
COc1cc2c(c(OC)c1OC)-c1ccc(OC)c(=O)cc1[C@@H](NC(C)=O)CC2 [Colchicine],YES,Amb.-DC,6,0.016,mild Srxn1-GFP and ICAM1-GFP activation,mild Srxn1-GFP and ICAM1-GFP activation,,Non-sev.,,,,,
CN1CCN(C2=Nc3cc(Cl)ccc3Nc3ccccc32)CC1 [Clozapine],YES,,,2.44,,strong ICAM1-GFP suppression,,,,CHOP-GFP activation,,,
O=C1CN(/N=C/c2ccc(-c3ccc([N+](=O)[O-])cc3)o2)C(O)=N1 [Dantrolene],YES,Most-DC,8,7.9,,mild ICAM1-GFP suppression,,,activation of Srxn1-GFP and/or CHOP-GFP,,,,
CCc1oc2ccccc2c1C(=O)c1cc(Br)c(O)c(Br)c1 [Benzbromarone],YES,Most-DC,8,4.34,,mild ICAM1-GFP suppression,,,activation of Srxn1-GFP and/or CHOP-GFP,,,,
C[C@](N)(Cc1ccc(O)c(O)c1)C(=O)O [Methyldopa],YES,Most-DC,8,18.9,increased,inhibited,,,,,increased,,
CCc1nn(CCCN2CCN(c3cccc(Cl)c3)CC2)c(=O)n1CCOc1ccccc1 [Nefazodone],YES,Most-DC,8,3.95,,strong ICAM1-GFP suppression,,,,CHOP-GFP activation,,,
COc1cc([C@@H]2c3cc4c(cc3[C@@H](O[C@@H]3O[C@@H]5CO[C@@H](C)O[C@H]5[C@H](O)[C@H]3O)[C@H]3COC(=O)[C@H]23)OCO4)cc(OC)c1O [Etoposide],YES,,,,,,,,,,strong inducers,,
CN(C)[C@@H]1C(O)=C(C(N)=O)C(=O)[C@@]2(O)C(O)=C3C(=O)c4c(O)cccc4[C@@](C)(O)[C@H]3[C@H](O)[C@@H]12 [Oxytetracycline],,Amb.-DC,2,3.26,,,,,,,,delayed Srxn1-GFP response,initial CHOP-GFP response
Nc1c(CC(=O)O)cccc1C(=O)c1ccc(Br)cc1 [Bromfenac],,Most-DC,8,18,,mild ICAM1-GFP suppression,,,activation of Srxn1-GFP and/or CHOP-GFP,,,,
